Reference: ChEMBL document CHEMBL5357057, “Pleosmaranes A-R, Isopimarane and 20-nor Isopimarane Diterpenoids with Anti-inflammatory Activities from the Mangrove Endophytic Fungus Pleosporales sp. HNQQJ-1” (J Nat Prod, 2024)

Columns and labels:
[1] = test system: RAW264.7; test: Anti-inflammatory activity in mouse RAW264.7 cells assessed as inhibition of LPS-induced NO production incubated for 24 hrs by Griess reagent based analysis; format: functional, cell-based; conditions: RAW264.7, 24 h
[2] = test system: RAW264.7; test: Cytotoxicity against mouse RAW264.7 cells assessed as reduction in cell viability at 5 to 50 uM measured for 24 hrs by MTT assay; format: toxicity, cell-based; conditions: raw264.7, 24 h, dose 5-50 µM

Structure (SMILES): C=C[C@@]1(C)CCc2c3c(cc(O)c2[C@@H]1OC)C(C)(C)CCC3
- IC50 [1]: 30 µM
- Activity [2]: Non-Toxic

Structure (SMILES): C=C[C@@]1(C)CCc2c3c(cc(O)c2[C@H]1OC)[C@](C)(CO)CCC3
- IC50 [1]: 42 µM
- Activity [2]: Non-Toxic

Structure (SMILES): C=C[C@]1(C)C=C2[C@@H](OC(C)=O)[C@H]3OC(=O)[C@@]4(CCCC(C)(C)[C@H]34)[C@@]2(O)CC1
- IC50 [1]: 35 µM
- Activity [2]: Non-Toxic

Structure (SMILES): C=C[C@@]1(C)CCc2c3c(cc(O)c2[C@@H]1OC)C(C)(C)[C@@H](O)CC3
- IC50 [1]: 35 µM
- Activity [2]: Non-Toxic

Structure (SMILES): C=C[C@@]1(C)CCc2c3c(cc(O)c2[C@H]1OC)C(C)(C)CCC3
- IC50 [1]: 37 µM
- Activity [2]: Non-Toxic

Structure (SMILES): C=C[C@@]1(C)CC[C@@]2(O)C(=C[C@H](O)[C@H]3C(C)(C)CC[C@@H](OC(C)=O)[C@@]32C)[C@H]1O
- IC50 [1]: > 50 µM
- Activity [2]: Non-Toxic

Structure (SMILES): C=C[C@@]1(C)CCc2c3c(cc(O)c2[C@H]1O)[C@](C)(CO)CCC3
- IC50 [1]: > 50 µM
- Activity [2]: Non-Toxic

Structure (SMILES): C=C[C@@]1(C)C[C@H](O)c2c3c(cc(O)c2[C@H]1OC)C(C)(C)CCC3
- IC50 [1]: 38 µM
- Activity [2]: Non-Toxic

Structure (SMILES): C=C[C@@]1(C)CCc2c3c(cc(O)c2[C@@H]1OC)[C@@](C)(CO)CCC3
- IC50 [1]: 42 µM
- Activity [2]: Non-Toxic

Structure (SMILES): C=C[C@@]1(C)CCc2c3c(cc(O)c2[C@H]1O)C(C)(C)CCC3
- IC50 [1]: > 50 µM
- Activity [2]: Non-Toxic

Structure (SMILES): C=C[C@@]1(C)CCc2c3c(cc(O)c2[C@@H]1O)[C@@](C)(CO)CCC3
- IC50 [1]: > 50 µM
- Activity [2]: Non-Toxic

Structure (SMILES): C=C[C@]1(C)C=C2[C@@H](O)C[C@H]3C(C)(C)CC[C@@H](OC(C)=O)[C@]3(C)[C@@]2(O)CC1
- IC50 [1]: 25 µM
- Activity [2]: Non-Toxic

Structure (SMILES): C=C[C@@]1(C)CCc2c3c(cc(O)c2[C@@H]1O)C(C)(C)CCC3
- IC50 [1]: 40 µM
- Activity [2]: Non-Toxic

Structure (SMILES): C=C[C@]1(C)C=C2C(=O)C[C@H]3C(C)(C)CCC[C@]3(C(=O)O)[C@@]2(O)CC1 [SPHAEROPSIDIN C]
- IC50 [1]: 31 µM
- Activity [2]: Non-Toxic

Structure (SMILES): C=C[C@]1(C)C=C2[C@H]3O[C@@H](O)[C@@]4(CCCC(C)(C)[C@@H]4[C@H]3OC(C)=O)[C@@]2(O)CC1
- IC50 [1]: 33 µM
- Activity [2]: Non-Toxic

Structure (SMILES): C=C[C@@]1(C)CCC2=C(C1)C(=O)C[C@H]1C(C)(C)[C@H](O)C[C@@H](O)[C@]21C
- IC50 [1]: > 50 µM
- Activity [2]: Non-Toxic

Structure (SMILES): C=C[C@]1(C)C=C2[C@@H](O)[C@H](O)[C@H]3C(C)(C)CC[C@@H](OC(C)=O)[C@]3(C)[C@@]2(O)CC1
- IC50 [1]: 35 µM
- Activity [2]: Non-Toxic

Structure (SMILES): C=C[C@]1(C)C=C2[C@](O)(CC1)[C@@]13CCCC(C)(C)[C@@H]1[C@@H](OC(C)=O)[C@]2(O)OC3
- IC50 [1]: 30 µM
- Activity [2]: Non-Toxic

Structure (SMILES): C=C[C@@]1(C)CCc2c(c(O)cc3c2CCCC3(C)C)C1
- IC50 [1]: > 50 µM
- Activity [2]: Non-Toxic

Structure (SMILES): C=C[C@@]1(C)CCc2c3c(cc(O)c2C1=O)[C@](C)(CO)CCC3
- IC50 [1]: 19 µM
- Activity [2]: Non-Toxic

Structure (SMILES): C=C[C@@]1(C)CCC2=C([C@H]3O[C@@H](OC)[C@@]24CCCC(C)(C)[C@@H]4[C@H]3OC(C)=O)[C@H]1O
- IC50 [1]: 37 µM
- Activity [2]: Non-Toxic

Structure (SMILES): C=C[C@]1(C)C=C2C(=O)C[C@H]3C(C)(C)CC[C@@H](OC(C)=O)[C@]3(C)[C@@]2(O)CC1
- IC50 [1]: 33 µM
- Activity [2]: Non-Toxic
